Assay results as given in US7572793B2, “3-Substituted-4-pyrimidone derivatives” (Mitsubishi Tanabe Pharma Corporation, priority 2001, dated 2009).

target: T1, bovine cerebral TPK1 (Bos taurus, UniProt A0A3Q1MT31); assay: Inhibitory activity against P-GS1 phosphorylation by bovine cerebral TPK1; type: biochemical; details: 41.7 μM [γ-32P]ATP, 25° C., 2 hours, pH 6.5
T1 construct: from tissue; host or cells: bovine brain (cerebrum)
Experimental: Inhibitory Activity of the Medicament of the Present Invention Against P-GS1 Phosphorylation by Bovine Cerebral TPK1
A mixture containing 100 mM MES-sodium hydroxide (pH 6.5), 1 mM magnesium acetate, 0.5 mM EGTA, 5 mM β-mercaptoethanol, 0.02% Tween 20, 10% glycerol, 12 μg/ml P-GS1, 41.7 μM [y-^32P] ATP (68 kBq/ml), bovine cerebral TPK1 and a compound shown in Table (a final mixture contained 1.7% DMSO deriving from a solution of a test compound prepared in the presence of 10% DMSO) was used as a reaction system. The phosphorylation was started by adding ATP, and the reaction was conducted at 25° C. for 2 hours, and then stopped by adding 21% perchloric acid on ice cooling. The reaction mixture was centrifuged at 12,000 rpm for 5 minutes and adsorbed on P81 paper (Whatmann), and then the paper was washed four times with 75 mM phosphoric acid, three times with water and once with acetone. The paper was dried, and the residual radioactivity was measured using a liquid scintillation counter. […] PHF formation, and that the medicaments of the present invention are effective for preventive and/or therapeutic treatment of Alzheimer disease and the above-mentioned diseases.

T1 sequence (A0A3Q1MT31 1-419): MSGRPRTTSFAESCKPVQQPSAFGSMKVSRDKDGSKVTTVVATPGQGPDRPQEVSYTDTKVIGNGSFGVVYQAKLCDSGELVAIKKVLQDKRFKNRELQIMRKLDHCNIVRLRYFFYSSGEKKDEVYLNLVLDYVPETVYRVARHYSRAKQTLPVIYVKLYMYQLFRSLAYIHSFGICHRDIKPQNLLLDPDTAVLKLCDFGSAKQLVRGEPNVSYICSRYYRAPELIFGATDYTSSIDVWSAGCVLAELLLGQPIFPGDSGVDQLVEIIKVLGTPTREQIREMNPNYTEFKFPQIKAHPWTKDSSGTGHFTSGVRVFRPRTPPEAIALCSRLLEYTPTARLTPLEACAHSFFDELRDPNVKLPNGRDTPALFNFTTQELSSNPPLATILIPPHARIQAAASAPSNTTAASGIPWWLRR

SMILES	IC50
Cc1cccc(C(=O)CNc2nc(-c3ccncn3)cc(=O)n2C)c1 [Compound A130]	30 nM
COc1cc(F)cc(OC)c1[C@@H]1CN(c2nc(-c3ccncn3)cc(=O)n2C)CCO1 [Compound B245]	1.3 nM
COc1cc(C)c(C)cc1C1CN(c2nc(-c3ccncn3)cc(=O)n2C)CCO1 (stereo not shown) [Compound B246]	1.1 nM
Cn1c(N2CCOC(c3ccc(N4CCCC4)cc3)C2)nc(-c2ccncn2)cc1=O (stereo not shown) [Compound B140]	3.7 nM
Cn1c(N2CCOC(c3noc4ccccc34)C2)nc(-c2ccncn2)cc1=O (stereo not shown) [Compound B251]	2.4 nM
Cn1c(NCC(=O)c2cccc(Cl)c2)nc(-c2ccncn2)cc1=O [Compound A124]	11 nM
Cn1c(NCC(=O)c2ccccc2)nc(-c2ccncn2)cc1=O [Compound A119]	24 nM
COc1ccc(-c2ccc(F)cc2)cc1C1CN(c2nc(-c3ccncn3)cc(=O)n2C)CCO1 (stereo not shown) [Compound B255]	4.6 nM
COc1ccccc1[C@H]1CN(c2nc(-c3ccncn3)cc(=O)n2C)CCO1 [Compound B085]	0.87 nM
CC(C)Oc1cc(F)ccc1C1CN(c2nc(-c3ccncn3)cc(=O)n2C)CCO1 (stereo not shown) [Compound B241]	4.6 nM
Cn1c(N2CCOC(c3cccc4c3OCC4)C2)nc(-c2ccncn2)cc1=O (stereo not shown) [Compound B237]	0.821 nM
Cn1c(N2CCOC(c3ccc(F)cc3OCC3CC3)C2)nc(-c2ccncn2)cc1=O (stereo not shown) [Compound B247]	15 nM
Cn1c(N2CCOC(c3ccc(F)cc3)C2)nc(-c2ccncn2)cc1=O (stereo not shown) [Compound B030]	11 nM
COc1cccc([C@H]2CN(c3nc(-c4ccncn4)cc(=O)n3C)CCO2)c1 [Compound B082]	4.6 nM
Cn1c(N2CCO[C@@H](c3ccccc3F)C2)nc(-c2ccncn2)cc1=O [Compound B037]	3 nM
Cn1c(N2CCOC(c3c(F)cccc3Cl)C2)nc(-c2ccncn2)cc1=O (stereo not shown) [Compound B239]	0.74 nM
COc1cc(Cl)ccc1C1CN(c2nc(-c3ccncn3)cc(=O)n2C)CCO1 (stereo not shown) [Compound B249]	0.83 nM
COc1cccc(OC)c1C1CN(c2nc(-c3ccncn3)cc(=O)n2C)CCO1 (stereo not shown) [Compound B102]	0.441 nM
COc1cccc(OC)c1[C@@H]1CN(c2nc(-c3ccncn3)cc(=O)n2C)CCO1 [Compound B104]	4.5 nM
COc1ccc(-c2cccnc2)cc1C1CN(c2nc(-c3ccncn3)cc(=O)n2C)CCO1 (stereo not shown) [Compound B256]	0.64 nM
Cn1c(N2CCOC(c3cc4cc(F)ccc4n3C)C2)nc(-c2ccncn2)cc1=O (stereo not shown) [Compound B242]	6.9 nM

SMILES	IC50
COc1ccccc1C1CN(c2nc(-c3ccncn3)cc(=O)n2C)CCO1 (stereo not shown) [Compound B084]	1.2 nM
Cn1c(N2CCOC(c3nc4ccccc4s3)C2)nc(-c2ccncn2)cc1=O (stereo not shown) [Compound B225]	12 nM
COc1cc(F)ccc1[C@H]1CN(c2nc(-c3ccncn3)cc(=O)n2C)CCO1 [Compound B238]	0.47 nM
Cn1c(N2CCO[C@H](c3ccc(F)cc3)C2)nc(-c2ccncn2)cc1=O [Compound B032]	32 nM
Cn1c(N2CCO[C@@H](c3noc4ccccc34)C2)nc(-c2ccncn2)cc1=O [Compound B252]	1 nM
COc1cccc(OC)c1[C@H]1CN(c2nc(-c3ccncn3)cc(=O)n2C)CCO1 [Compound B103]	0.23 nM
COc1cc(C#N)ccc1C1CN(c2nc(-c3ccncn3)cc(=O)n2C)CCO1 (stereo not shown) [Compound B253]	0.7 nM
Cn1c(N2CCOC(c3ccc(F)cc3O)C2)nc(-c2ccncn2)cc1=O (stereo not shown) [Compound B257]	7.4 nM
COc1cc(F)cc(OC)c1[C@H]1CN(c2nc(-c3ccncn3)cc(=O)n2C)CCO1 [Compound B244]	0.17 nM
COc1ccc(C2CN(c3nc(-c4ccncn4)cc(=O)n3C)CC(C)(C)O2)cc1 (stereo not shown) [Compound B217]	26.1 nM
Cn1c(NCC(=O)c2cccc(F)c2)nc(-c2ccncn2)cc1=O [Compound A121]	19 nM
COc1ccc([C@H]2CN(c3nc(-c4ccncn4)cc(=O)n3C)CCO2)cc1 [Compound B079, (S)-2-[2-(4-Methoxyphenyl)morpholin-4-yl]-3-methyl-6-pyrimidin-4-yl-3H-pyrimidin-4-one]	2.9 nM
Cn1c(N2CCOC(c3ccccc3OCC3CC3)C2)nc(-c2ccncn2)cc1=O (stereo not shown) [Compound B126]	23 nM
Cn1c(N2CCOC(c3ccc(CN4CCCC4)cc3)C2)nc(-c2ccncn2)cc1=O (stereo not shown) [Compound B112]	2.1 nM
Cn1c(N2CCO[C@@H](c3ccc(F)cc3)C2)nc(-c2ccncn2)cc1=O [Compound B031, (S)-2-[2-(4-fluorophenyl)morpholin-4-yl]-3-methyl-6-pyrimidin-4-yl-3H-pyrimidin-4-one]	5 nM
COc1ccc(C#N)cc1C1CN(c2nc(-c3ccncn3)cc(=O)n2C)CCO1 (stereo not shown) [Compound B248]	0.78 nM
Cn1c(N2CCO[C@@H](c3cccc4c3OCC4)C2)nc(-c2ccncn2)cc1=O [Compound B243]	4.2 nM
COc1cc(F)cc(F)c1C1CN(c2nc(-c3ccncn3)cc(=O)n2C)CCO1 (stereo not shown) [Compound B250]	0.56 nM
Cn1c(N2CCOC(c3ccc(F)cc3Cl)C2)nc(-c2ccncn2)cc1=O (stereo not shown) [Compound B240]	3.5 nM
COc1cc(F)cc(F)c1[C@H]1CN(c2nc(-c3ccncn3)cc(=O)n2C)CCO1 [Compound B254]	0.24 nM

Results, then the compound that gave them:

IC50	SMILES
1.1 nM	COc1cc(-c2cccc(F)c2)ccc1C1CN(c2nc(-c3ccncn3)cc(=O)n2C)CCO1 (stereo not shown) [Compound B278]
4.8 nM	Cn1c(N2CCOC(c3cccc(N4CCCC4)c3)C2)nc(-c2ccncn2)cc1=O (single isomer, unassigned) [Compound B276]
38 nM	Cn1c(N2CCOC(C(=O)c3ccccc3)C2)nc(-c2ccncn2)cc1=O (single isomer, unassigned) [Compound C789]
7 nM	Cn1c(N2CCOC(c3cccc(N4CCCC4)c3)C2)nc(-c2ccncn2)cc1=O (single isomer, unassigned) [Compound B275]
0.6 nM	COc1ccc(CN2CCCC2)cc1C1CN(c2nc(-c3ccncn3)cc(=O)n2C)CCO1 (stereo not shown) [Compound B264]
0.6 nM	COc1ccc(-c2ccccn2)cc1C1CN(c2nc(-c3ccncn3)cc(=O)n2C)CCO1 (stereo not shown) [Compound B280]
1.6 nM	COc1ccc(-c2cccc(F)c2)cc1C1CN(c2nc(-c3ccncn3)cc(=O)n2C)CCO1 (stereo not shown) [Compound B266]
11 nM	Cn1c(N2CCOC3(CCOc4ccccc43)C2)nc(-c2ccncn2)cc1=O (stereo not shown) [Compound B284]
1.1 nM	Cn1c(N2CCC(C(=O)c3ccc(Cl)cc3)CC2)nc(-c2ccncn2)cc1=O [Compound D034, 2-[4-(4-Chlorobenzoyl)piperidin-1-yl]-3-methyl-6-pyrimidin-4-yl-3H-pyrimidin-4-one]
27 nM	Cn1c(N2CCOC(c3ccc(F)cc3OCc3ccccc3)C2)nc(-c2ccncn2)cc1=O (stereo not shown) [Compound B270]
0.64 nM	Cn1c(N2CCOC(C(=O)c3ccccc3)C2)nc(-c2ccncn2)cc1=O (single isomer, unassigned) [Compound C790]
0.84 nM	COc1cccc(-c2ccc(OC)c(C3CN(c4nc(-c5ccncn5)cc(=O)n4C)CCO3)c2)n1 (stereo not shown) [Compound B281]
1.2 nM	COc1cc(-c2ccc(F)cc2)ccc1C1CN(c2nc(-c3ccncn3)cc(=O)n2C)CCO1 (stereo not shown) [Compound B279]
1.7 nM	COc1ccc(-c2ccc(OC)c(C3CN(c4nc(-c5ccncn5)cc(=O)n4C)CCO3)c2)cc1 (stereo not shown) [Compound B268]
4.2 nM	Cn1c(N2CCOC(c3cc4ccccc4o3)C2)nc(-c2ccncn2)cc1=O (stereo not shown) [Compound B271]
1.3 nM	COc1cccc(-c2ccc(OC)c(C3CN(c4nc(-c5ccncn5)cc(=O)n4C)CCO3)c2)c1 (stereo not shown) [Compound B262]
1.2 nM	COc1ccccc1-c1ccc(OC)c(C2CN(c3nc(-c4ccncn4)cc(=O)n3C)CCO2)c1 (stereo not shown) [Compound B267]
1.4 nM	COc1ccc(-c2ccccc2F)cc1C1CN(c2nc(-c3ccncn3)cc(=O)n2C)CCO1 (stereo not shown) [Compound B261]
1.9 nM	COc1ncc(-c2ccc(OC)c(C3CN(c4nc(-c5ccncn5)cc(=O)n4C)CCO3)c2)c(OC)n1 (stereo not shown) [Compound B283]
7.1 nM	Cn1c(N2CCO[C@@H](c3cc4ccccc4o3)C2)nc(-c2ccncn2)cc1=O [Compound B272]
1.4 nM	COc1cc(-c2ccccc2F)ccc1C1CN(c2nc(-c3ccncn3)cc(=O)n2C)CCO1 (stereo not shown) [Compound B277]
0.56 nM	Cn1c(N2CCOC(C(=O)c3ccccc3)C2)nc(-c2ccncn2)cc1=O (stereo not shown) [Compound C501]
1.1 nM	COc1ccc(Nc2ccccc2)cc1C1CN(c2nc(-c3ccncn3)cc(=O)n2C)CCO1 (stereo not shown) [Compound B269]
1.2 nM	COc1ccc(N2CCCC2)cc1C1CN(c2nc(-c3ccncn3)cc(=O)n2C)CCO1 (stereo not shown) [Compound B259]
13 nM	COc1ccc(-c2ccc(Cl)cc2Cl)cc1C1CN(c2nc(-c3ccncn3)cc(=O)n2C)CCO1 (stereo not shown) [Compound B263]
4.3 nM	COc1cccc2cc(C3CN(c4nc(-c5ccncn5)cc(=O)n4C)CCO3)oc12 (stereo not shown) [Compound B273]
1.4 nM	COc1cc(-c2ccccc2)ccc1C1CN(c2nc(-c3ccncn3)cc(=O)n2C)CCO1 (stereo not shown) [Compound B258]
0.57 nM	COc1ccc(-c2cccc(CN3CCCC3)c2)cc1C1CN(c2nc(-c3ccncn3)cc(=O)n2C)CCO1 (stereo not shown) [Compound B274]
1.1 nM	Cn1c(N2CCCC(C(=O)c3ccccc3)C2)nc(-c2ccncn2)cc1=O (stereo not shown) [Compound C401]
